We go through three compounds from patent publication US20250144087A1, “USE OF VE607 FOR THE TREATMENT OF SARS-COV-2 INFECTIONS AND RELATED DISEASES” (priority 2022, published 2025).

Molecules are shown by their SMILES.

Test [1] relates to pseudoviral particles expressing the Spike from SARS-CoV-2. Briefly: microbe, parasite or virus in culture. The test is classed as cell-based. As to conditions: SARS-CoV-2 D614G pseudovirus.
Test [2] deals with interaction of sACE2 with the full SARS-CoV-2 Spike expressed at the cell surface (Severe acute respiratory syndrome coronavirus 2, UniProt P0DTC2, D614G). The test is classed as binding.
Test [3] deals with SARS-CoV-2 D614G Spike Q498V pseudoviral particles. In kind it is cell-based.
The target of the next test is SARS-CoV-2 Spike (Severe acute respiratory syndrome coronavirus 2, UniProt P0DTC2, D614G). The test is classed as cell-based.
The test system of test [4] is pseudoviral particles bearing the Spike glycoproteins from the major VOCs (Alpha, Beta, Gamma, Delta and Omicron). The test is classed as cell-based, SARS-CoV-2.
Test [5] concerns SARS-CoV-2 D614G Spike Y505T pseudoviral particles. The test is classed as cell-based.
The subject of test [6] is authentic SARS-CoV-2 D614G. The test is classed as cell-based.

For `O[C@H](COc1cccc(OC[C@@H](O)CN2CCCCC2)c1)CN1CCCCC1` [(S,S)-VE607, (2S,2'S)-3,3′-(1,3-phenylenebis(oxy))bis(1-(piperidin-1-yl)propan-2-ol)], the “capacity to neutralize SARS-CoV-2 pseudovirus particles compared with commercially available VE607” value in test [1] was “same capacity as commercially available VE607”.
Take `C=CCC(/C=C/OCC(O)CN(CC)CCC)OCC(O)CN(CC)CCC` (centres unmarked) [VE607]: in test [2], the “competition with sACE2 for interaction with Spike” value is “no competition”. In addition, the half-inhibitory concentration (IC50) was 1800 nM in test [3], over 40000 nM in test [5] and 2420 nM in test [6]. Further, at SARS-CoV-2 Spike, the “S1 shedding / trimer stability” value was “decrease shedding”. For the same compound, in test [4], the IC50 values result is “low micromolar range”.
With `O[C@@H](COc1cccc(OC[C@H](O)CN2CCCCC2)c1)CN1CCCCC1` [(R,R)-VE607, (2R,2′R)-3,3′-(1,3-phenylenebis(oxy))bis(1-(piperidin-1-yl)propan-2-ol)], the “capacity to neutralize SARS-CoV-2 pseudovirus particles compared with commercially available VE607” value in test [1] was “same capacity as commercially available VE607”.
